Values quoted from earlier work as cited in patent publication US9422238B2, “ICMT inhibitors” (National University of Singapore, priority 2012, dated 2016).

System: several malignant cell lines
Details: irrespective of Ras status; cited from earlier work

For `COc1cccc(NCCC2(c3ccccc3)CC(C)(C)OC(C)(C)C2)c1` [3-methoxy-N-[2-(2,2,6,6-tetramethyl-4-phenyltetrahydropyran-4-yl)ethyl]aniline], the GI50 is listed as ≥ 300 nM.
